From patent US4526989A, “1,4-Bis (substituted-amino)-5,8-dihydroxy-anthraquinones and leuco bases thereof” (priority 1979, dated 1985) come the findings set out here.

Where two headings read alike, the source gives them in different places.

The test system of assay [1] is lymphocytic leukemia P388. Kind of assay: Lymphocytic leukemia P388 test (intraperitoneal administration). The class given is in vivo, DBA/2 mice. Here is the method:
The animals used are DBA/2 mice all of one sex, weighing a minimum of 17 g. and all within a 3 gram weight range. There are 5 or 6 animals per test group. The tumor transplant is by intraperitoneal injection of 0.1 ml. of dilute ascitic fluid containing 10^6 cells of lymphocytic leukemia P388. The test compounds are administered intraperitoneally on days one, 5 and 9 (relative to tumor inoculation) at various doses. The animals are weighed and survivors are recorded on a regular basis for 30 days. The median survival time and the ratio of survival time for treated (T)/control (C) animals are calculated.

Assay [2] deals with melanotic melanoma B16. Kind of assay: Melanotic Melanoma B16 test. In kind it is in vivo, C57BC/6 mice. The settings on record: days 1 through 9. On the procedure: The animals used are C57BC/6 mice, all of the same sex, weighing a minimum of 17 g. and all within a 3-g. weight range. There are normally 10 animals per test group. A one-gram portion of melanotic melanoma B16 tumor is homogenized in 10 ml. of cold balanced salt solution and a 0.5-ml. aliquot of the homogenate is implanted intraperitoneally into each of the test mice. The test compounds are administered intraperitoneally on days one through 9 (relative to tumor inoculation) at various doses. The animals are weighed and survivors are recorded on a regular basis for 60 days. The median survival time and the ratio of survival time for treated (T)/control (C) animals are calculated. […] The criterion for efficacy is T/C×100≥125%.

The mark [3] stands for this setting: 25 mg./kg. i.p., days 1, 5 and 9.
The mark [4] stands for this setting: 50 mg./kg. i.p., days 1, 5 and 9.
The mark [5] stands for this setting: 100 mg./kg. i.p., days 1, 5 and 9.
The mark [6] stands for this setting: Mus musculus, P388, ip, 25 mg./kg. i.p., days 1, 5 and 9, efficacy ≥125%, read-out: T/C × 100.
The mark [7] stands for this setting: Mus musculus, P388, ip, 50 mg./kg. i.p., days 1, 5 and 9, efficacy ≥125%, read-out: T/C × 100.
The mark [8] stands for this setting: Mus musculus, P388, ip, 100 mg./kg. i.p., days 1, 5 and 9, efficacy ≥125%, read-out: T/C × 100.
Setting [9] is: 0.78 mg./kg. i.p., days 1, 5 and 9.
Setting [10] is: 1.56 mg./kg. i.p., days 1, 5 and 9.
[11] abbreviates: 3.12 mg./kg. i.p., days 1, 5 and 9.
Setting [12] is: 6.25 mg./kg. i.p., days 1, 5 and 9.
The mark [13] stands for this setting: 12.5 mg./kg. i.p., days 1, 5 and 9.
[14] abbreviates: Mus musculus, P388, ip, 0.78 mg./kg. i.p., days 1, 5 and 9, efficacy ≥125%, read-out: T/C × 100.
[15] abbreviates: Mus musculus, P388, ip, 1.56 mg./kg. i.p., days 1, 5 and 9, efficacy ≥125%, read-out: T/C × 100.
Where [16] appears, read: Mus musculus, P388, ip, 3.12 mg./kg. i.p., days 1, 5 and 9, efficacy ≥125%, read-out: T/C × 100.
[17] abbreviates: Mus musculus, P388, ip, 6.25 mg./kg. i.p., days 1, 5 and 9, efficacy ≥125%, read-out: T/C × 100.
The mark [18] stands for this setting: Mus musculus, P388, ip, 12.5 mg./kg. i.p., days 1, 5 and 9, efficacy ≥125%, read-out: T/C × 100.
Where [19] appears, read: 200 mg./kg. i.p., days 1, 5 and 9.
Where [20] appears, read: Mus musculus, P388, ip, 200 mg./kg. i.p., days 1, 5 and 9, efficacy ≥125%, read-out: T/C × 100.

On to `O=C1c2c(O)ccc(O)c2C(=O)c2c(NCCN3CCCC3)ccc(NCCN3CCCC3)c21` [1,4-Bis[2-(1-pyrrolidinyl)ethylamino]-5,8-dihydroxyanthraquinone], for which the “Median Survival Time” value came out at 18.0 days in assay [1] (12 mg./kg. i.p., days 1, 5 and 9); 21.0 days in assay [1] (setting [3]); 23.0 days in assay [1] (setting [4]); 24.0 days in assay [1] (setting [5]); 22.0 days in assay [2] (6 mg./kg. i.p.); 22.0 days in assay [2] (12 mg./kg. i.p.). Also, in assay [2] (25 mg./kg. i.p.), the “Median Survival Time” value was found to be 24.5 days. Besides, the response vs control in vivo at 12 mg/kg was determined as 164% in assay [1] (Mus musculus, P388, ip, 12 mg./kg. i.p., days 1, 5 and 9, efficacy ≥125%, read-out: T/C × 100); 137% in assay [2] (Mus musculus, ip, 12 mg./kg. i.p., efficacy ≥125%, read-out: T/C × 100). Moreover, the response vs control in vivo at 25 mg/kg in assay [1] (setting [6]) turned out to be 191%; in assay [2] (Mus musculus, ip, 25 mg./kg. i.p., efficacy ≥125%, read-out: T/C × 100), 153%. Moreover, the response vs control in vivo at 50 mg/kg in assay [1] (setting [7]) came to 209%. Besides, the response vs control in vivo at 100 mg/kg in assay [1] (setting [8]) was determined as 218%. Further, in assay [2] (Mus musculus, ip, 6 mg./kg. i.p., efficacy ≥125%, read-out: T/C × 100), the response vs control in vivo at 6 mg/kg came out at 137%.

As to `Cl.Cl.O=C1c2c(O)ccc(O)c2C(=O)c2c(NCCCNCCO)ccc(NCCCNCCO)c21` [1,4-Bis[3-(2-hydroxyethylamino)-1-propylamino]-5,8-dihydroxyanthraquinone dihydrochloride], the “Median Survival Time” value in assay [1] (setting [9]) was 15.0 days; in assay [1] (setting [10]), 16.0 days; in assay [1] (setting [11]) it was 19.0 days; in assay [1] (setting [12]), 19.0 days; in assay [1] (setting [13]), 22.5 days; in assay [1] (setting [3]), 26.5 days. Further, the “Median Survival Time” value was 32.0 days in assay [1] (setting [4]) and 12.5 days in assay [1] (setting [5]). Further, the response vs control in vivo at 0.78 mg/kg in assay [1] (setting [14]) was found to be 136%. The response vs control in vivo at 1.56 mg/kg in assay [1] (setting [15]) was 145%. Moreover, in assay [1] (setting [16]), the response vs control in vivo at 3.12 mg/kg was 173%. Besides, the response vs control in vivo at 6.25 mg/kg in assay [1] (setting [17]) is 173%. For the same compound, the response vs control in vivo at 12.5 mg/kg in assay [1] (setting [18]) was 205%. For the same compound, the response vs control in vivo at 25 mg/kg in assay [1] (setting [6]) was 241%. Also, the response vs control in vivo at 50 mg/kg in assay [1] (setting [7]) was found to be 291%. Besides, the response vs control in vivo at 100 mg/kg in assay [1] (setting [8]) is 114%.

Consider `O=C1C2=C(NCCN3CCOCC3)CCC(NCCN3CCOCC3)=C2C(=O)c2c(O)ccc(O)c21` [Leuco-1,4-bis(2-morpholinoethylamino)-5,8-dihydroxyanthraquinone], for which the “Median Survival Time” value in assay [1] (setting [3]) turned out to be 12.0 days; in assay [1] (setting [4]) it was 11.0 days; in assay [1] (setting [5]) it was 12.0 days; in assay [1] (setting [19]) it was 13.0 days. Besides, the response vs control in vivo at 25 mg/kg in assay [1] (setting [6]) was 126%. Moreover, the response vs control in vivo at 50 mg/kg in assay [1] (setting [7]) is 116%. In assay [1] (setting [8]), the response vs control in vivo at 100 mg/kg is 126%. Also, the response vs control in vivo at 200 mg/kg in assay [1] (setting [20]) was found to be 137%.

For the compound `CC(O)CNCCNC1=C2C(=O)c3c(O)ccc(O)c3C(=O)C2=C(NCCNCC(C)O)CC1` (stereo not shown) [Leuco-1,4-bis[2-(2-hydroxy-1-propylamino)ethylamino]-5,8-dihydroxyanthraquinone], the “Median Survival Time” value in assay [1] (setting [12]) was 20.0 days; in assay [1] (setting [13]) it was 21.5 days; in assay [1] (setting [3]), 20.5 days; in assay [1] (setting [4]), 24.0 days; in assay [1] (setting [5]) it was 26.5 days; in assay [1] (setting [19]), 9.0 days. Also, in assay [1] (setting [17]), the response vs control in vivo at 6.25 mg/kg turned out to be 182%. In addition, the response vs control in vivo at 12.5 mg/kg in assay [1] (setting [18]) worked out at 195%. The response vs control in vivo at 25 mg/kg in assay [1] (setting [6]) worked out at 186%. Further, the response vs control in vivo at 50 mg/kg in assay [1] (setting [7]) is 218%. Also, the response vs control in vivo at 100 mg/kg in assay [1] (setting [8]) came out at 241%. In assay [1] (setting [20]), the response vs control in vivo at 200 mg/kg is 82%.

For `O=C1C2=C(NCCNCCCO)CCC(NCCNCCCO)=C2C(=O)c2c(O)ccc(O)c21` [Leuco-1,4-bis[2-(3-hydroxy-1-propylamino)ethylamino]-5,8-dihydroxyanthraquinone], the “Median Survival Time” value in assay [1] (setting [9]) worked out at 18.0 days; in assay [1] (setting [10]), 19.5 days; in assay [1] (3.1 mg./kg. i.p., days 1, 5 and 9), 18.5 days; in assay [1] (setting [12]) it was 16.5 days; in assay [1] (setting [13]), 19.5 days; in assay [1] (setting [3]), 22.0 days. For the same compound, the figures for the “Median Survival Time” value in assay [1] (setting [4]), in assay [1] (setting [5]) and in assay [1] (setting [19]) were 34.0 days, 38.0 days and 14.0 days, respectively. Moreover, the response vs control in vivo at 25 mg/kg in assay [1] (Mus musculus, P388, ip, read-out: T/C × 100) is 200%. Further, the response vs control in vivo at 0.78 mg/kg in assay [1] (setting [14]) is 164%. For the same compound, the response vs control in vivo at 1.56 mg/kg in assay [1] (setting [15]) is 177%. In addition, the response vs control in vivo at 3.1 mg/kg in assay [1] (Mus musculus, P388, ip, 3.1 mg./kg. i.p., days 1, 5 and 9, efficacy ≥125%, read-out: T/C × 100) came to 168%. Further, in assay [1] (setting [17]), the response vs control in vivo at 6.25 mg/kg was found to be 150%. The response vs control in vivo at 12.5 mg/kg in assay [1] (setting [18]) was 177%. In assay [1] (setting [7]), the response vs control in vivo at 50 mg/kg stood at 309%. The response vs control in vivo at 100 mg/kg in assay [1] (setting [8]) came to 345%. In addition, in assay [1] (setting [20]), the response vs control in vivo at 200 mg/kg was 127%.

Regarding `O=C1C2=C(NCCN(CCO)CCO)CCC(NCCN(CCO)CCO)=C2C(=O)c2c(O)ccc(O)c21` [Leuco-1,4-bis[2-[di(β-hydroxyethyl)amino]ethylamino]-5,8-dihydroxyanthraquinone], the “Median Survival Time” value in assay [1] (6.2 mg./kg. i.p., days 1, 5 and 9) was 12.0 days; in assay [1] (setting [13]), 13.5 days; in assay [1] (setting [3]), 15.0 days; in assay [1] (setting [4]), 16.0 days; in assay [1] (setting [5]), 17.0 days; in assay [1] (setting [19]) it was 19.0 days. Further, the response vs control in vivo at 6.2 mg/kg in assay [1] (Mus musculus, P388, ip, 6.2 mg./kg. i.p., days 1, 5 and 9, efficacy ≥125%, read-out: T/C × 100) amounted to 120%. For the same compound, the response vs control in vivo at 12.5 mg/kg in assay [1] (setting [18]) came to 135%. The response vs control in vivo at 25 mg/kg in assay [1] (setting [6]) was 150%. Besides, the response vs control in vivo at 50 mg/kg in assay [1] (setting [7]) came to 160%. The response vs control in vivo at 100 mg/kg in assay [1] (setting [8]) is 170%. The response vs control in vivo at 200 mg/kg in assay [1] (setting [20]) is 190%.

With `O=C1C2=C(NCCCNCCO)CCC(NCCCNCCO)=C2C(=O)c2c(O)ccc(O)c21` [Leuco-1,4-bis[3-(2-hydroxyethylamino)-1-propylamino]-5,8-dihydroxyanthraquinone], the “Median Survival Time” value in assay [1] (setting [11]) worked out at 15.0 days; in assay [1] (setting [12]), 18.0 days; in assay [1] (setting [13]), 19.0 days; in assay [1] (setting [3]) it was 18.5 days; in assay [1] (setting [4]), 25.0 days; in assay [1] (setting [5]), 27.5 days. In assay [1] (setting [19]), the “Median Survival Time” value worked out at 33.5 days. Besides, the response vs control in vivo at 3.12 mg/kg in assay [1] (setting [16]) was found to be 136%. In addition, the response vs control in vivo at 6.25 mg/kg in assay [1] (setting [17]) is 164%. In assay [1] (setting [18]), the response vs control in vivo at 12.5 mg/kg was 173%. Also, the response vs control in vivo at 25 mg/kg in assay [1] (setting [6]) stood at 168%. In addition, the response vs control in vivo at 50 mg/kg in assay [1] (setting [7]) worked out at 227%. The response vs control in vivo at 100 mg/kg in assay [1] (setting [8]) is 250%. In addition, the response vs control in vivo at 200 mg/kg in assay [1] (setting [20]) was 305%.
